# In patent US5043450A, “8-alkoxyquinolonecarboxylic acid and salts thereof” (priority 1986, dated 1991):
# How the values were obtained:
# Assay in all cases: Antibacterial spectra, MIC
# Format in all cases: cell-based
# [1] = tested on: Bacilus subtilis PCI 219; conditions: Bacillus subtilis, PCI219
# [2] = tested on: Staphylococcus aureus 209 P; conditions: 10^6 cells/ml, Gram +, read-out: MIC
# [3] = tested on: S. aureus Smith; conditions: Staphylococcus aureus; 10^6 cells/ml; Gram +; read-out: MIC
# [4] = tested on: S. pyogenes IID 692; conditions: Streptococcus pyogenes, IID692; 10^6 cells/ml; Gram +; read-out: MIC
# [5] = tested on: P. mirabilis IID 994; conditions: Proteus mirabilis, IID994; 10^6 cells/ml; Gram -; read-out: MIC
# [6] = tested on: Enterobacter cloacae IID 977; conditions: IID977, 10^6 cells/ml, Gram -, read-out: MIC
# [7] = tested on: P. maltophilia GIFU 2491; conditions: Stenotrophomonas maltophilia, GIFU2491; 10^6 cells/ml; Gram -; read-out: MIC
# [8] = tested on: Yersinia enterocolitica IID 981; conditions: IID981, 10^6 cells/ml, Gram -, read-out: MIC
# [9] = tested on: Bacteroides fragilis GM 7000; conditions: GM7000, 10^6 cells/ml, Gram -, read-out: MIC
# [10] = tested on: Propionibacterium acens 11828; conditions: 10^6 cells/ml, Gram +, read-out: MIC
compound,measurement,setting,value
"CCOc1c(N2CCNCC2)c(F)cc2c(=O)c(C(=O)O)cn(C3CC3)c12 [Exp. 18, 1-cyclopropyl-6-fluoro-1,4-dihydro-8-ethoxy-4-oxo-7-(1-piperazinyl)-3-quinolinecarboxylic acid]",MIC,[1],≤ 0.05 µg/mL
same,MIC,[2],0.2 µg/mL
same,MIC,[3],0.39 µg/mL
same,MIC,[4],3.13 µg/mL
same,MIC,[5],0.1 µg/mL
same,MIC,[6],0.2 µg/mL
same,MIC,[7],0.39 µg/mL
same,MIC,[8],0.2 µg/mL
same,MIC,[9],3.13 µg/mL
same,MIC,[10],12.5 µg/mL
